Experimental data published in patent US5334600A, “Isoquinolyl substituted hydroxylamine derivatives” (Ciba-Geigy Corporation, priority 1993, dated 1994).

Assays:
5-lipoxygenase [1] = experiment: Ex vivo inhibition of A-23187-stimulated LTB4 formation in whole blood after oral administration; conditions: dose of about 1.0 mg/kg p.o. to the dog
Protocol: Furthermore, the inhibition of 5-lipoxygenase is determined after oral or i.v. administration to rats or dogs by measuring ex vivo in whole blood the decrease of A-23187-stimulated LTB4 formation as compared to non-treated control animals.

5-lipoxygenase [2] = target: T1, 5-lipoxygenase (Cavia porcellus, UniProt A0A286X958); experiment: Inhibition of 5-HETE and LTB4 synthesis in A-23187-stimulated guinea pig polymorphonuclear leukocytes; format: cell-based; conditions: read-out: IC50, inhibition of the formation of 5-HETE and leukotriene B4 (LTB4)
T1 construct: A-23187-stimulated guinea pig polymorphonuclear leukocytes; endogenous in cells; host or cells: guinea pig polymorphonuclear leukocytes
T1 sequence (A0A286X958 1-674): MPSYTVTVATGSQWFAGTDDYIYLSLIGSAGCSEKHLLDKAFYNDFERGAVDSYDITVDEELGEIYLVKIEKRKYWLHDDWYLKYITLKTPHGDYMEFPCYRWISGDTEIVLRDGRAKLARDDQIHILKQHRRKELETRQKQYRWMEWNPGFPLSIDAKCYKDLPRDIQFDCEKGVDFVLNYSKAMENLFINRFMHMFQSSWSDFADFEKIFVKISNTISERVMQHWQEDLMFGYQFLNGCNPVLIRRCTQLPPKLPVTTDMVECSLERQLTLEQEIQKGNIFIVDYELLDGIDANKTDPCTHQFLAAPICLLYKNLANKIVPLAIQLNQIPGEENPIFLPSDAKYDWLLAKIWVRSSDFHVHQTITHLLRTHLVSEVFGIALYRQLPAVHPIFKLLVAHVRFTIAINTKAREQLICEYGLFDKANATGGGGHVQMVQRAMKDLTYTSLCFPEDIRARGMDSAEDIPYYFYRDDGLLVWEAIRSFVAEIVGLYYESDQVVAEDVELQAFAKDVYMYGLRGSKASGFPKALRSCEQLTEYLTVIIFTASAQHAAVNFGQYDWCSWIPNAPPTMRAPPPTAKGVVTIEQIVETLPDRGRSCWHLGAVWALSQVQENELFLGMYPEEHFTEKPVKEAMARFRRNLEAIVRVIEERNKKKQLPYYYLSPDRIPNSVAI
Protocol: 5-Lipoxygenase inhibition is determined e.g. by measuring the percent inhibition of the synthesis of 5-HETE [(5S)-5-hydroxy-6,8,11,14-eicosa-tetraenoic acid] and leukotriene B4 (LTB4, 5,12-dihydroxy-6,8, 10, 14-eicosatetraenoic acid) in A-23187-stimulated guinea pig polymorphonuclear leukocytes, essentially according to radiometric thin-layer chromatographic assays described by Walker and Dawson (J. Pharm. Pharmacol. 31: 778, 1979) and Jakschik and Lee (Nature 287: 51, 1980) to measure the formation of 5-HETE and LTB4 -like products from ^14 C-arachidonic acid. IC50 values are determined graphically as the concentration of test compound at which the synthesis of 5-HETE and LTB4 -like products is reduced to 50 % of their respective control values.

NC(=O)N(O)CCOc1ccc2c(c1)CCN(CCCc1ccccc1)C2=O [1(f), 2-(3-phenylpropyl)-6-[2-(N-aminocarbonyl-N-hydroxyamino)ethoxy]-1-oxo-1,2,3,4-tetrahydroisoquinoline]
inhibition of LTB4 formation as determined ex vivo (5-lipoxygenase [1]): significant inhibition | IC50 (5-lipoxygenase [2]): ~0.5 µM
